The values that follow come from PubChem BioAssay AID180 (DTP/NCI, 2004).

Several values for one entry are separate records, joined by “and”; a condition that tells them apart may be missing. Equal values may be shown once.

What is called T/C is the ratio of treated to control.

The subject of this assay is BDF1 mice, Adenocarcinoma 755 s.c., tumor weight T/C. Put plainly: NCI In Vivo Anticancer Drug Screen. Data for tumor model Adenocarcinoma 755 (subcutaneous) in B6D2F1 (BDF1) mice. As to conditions: endpoint: mean tumor weight, higher = larger tumour. The method in brief: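 Transplantable tumor implanted; mice dosed with compound or vehicle; survival or tumor size recorded; ratio of treated to vehicle control reported.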

The mark [1] stands for this setting: dose: 25.0 mg/kg/injection, schedule: Q01DX011 (ip), vehicle: carboxymethylcellulose (CMC).
[2] abbreviates: dose: 60.0 mg/kg/injection, schedule: Q01DX011 (ip), vehicle: carboxymethylcellulose (CMC).
The mark [3] stands for this setting: dose: 15.0 mg/kg/injection, schedule: Q01DX011 (ip), vehicle: methylcellulose (MC).
Setting [4] is: dose: 31.0 mg/kg/injection, schedule: Q01DX011 (ip), vehicle: methylcellulose (MC).

As to `Nc1nc2c(ncn2C2CCCC2)c(=O)[nH]1`, the T/C by setting is: under setting [1], 88 % of control; (dose: 75.0 mg/kg/injection, schedule: Q01DX011 (ip), vehicle: carboxymethylcellulose (CMC)) 63 % of control; (dose: 225.0 mg/kg/injection, schedule: Q01DX011 (ip), vehicle: carboxymethylcellulose (CMC)) 59 % of control.

As to `NC(=O)c1n[nH]nc1N=Nc1c(O)ccc2ccccc12`, the T/C (dose: 16.0 mg/kg/injection, schedule: Q01DX011 (ip), vehicle: carboxymethylcellulose (CMC)) was 85 % of control; the T/C (dose: 31.0 mg/kg/injection, schedule: Q01DX011 (ip), vehicle: carboxymethylcellulose (CMC)) was 120 % of control; the T/C (dose: 62.0 mg/kg/injection, schedule: Q01DX011 (ip), vehicle: carboxymethylcellulose (CMC)) is 204 % of control.

For the compound `CN(C)c1ccc(/C=C/c2ccnc3ccccc23)cc1`, the T/C reads like this: (dose: 4.0 mg/kg/injection, schedule: Q01DX011 (ip), vehicle: water) 117 % of control; (dose: 8.0 mg/kg/injection, schedule: Q01DX011 (ip), vehicle: water) 105 % of control; (dose: 16.0 mg/kg/injection, schedule: Q01DX011 (ip), vehicle: water) 72 % of control.

With `CC(=O)OC1C(CO)OC(n2cnc3c(=S)nc[nH]c32)C1OC(C)=O` (stereo unspecified), the T/C (dose: 3.75 mg/kg/injection, schedule: Q01DX011 (ip), vehicle: carboxymethylcellulose (CMC)) is 38 % of control; the T/C (dose: 7.5 mg/kg/injection, schedule: Q01DX011 (ip), vehicle: carboxymethylcellulose (CMC)) was 10 % of control; the T/C (dose: 15.0 mg/kg/injection, schedule: Q01DX011 (ip), vehicle: carboxymethylcellulose (CMC)) is 5 % of control; the T/C (dose: 30.0 mg/kg/injection, schedule: Q01DX011 (ip), vehicle: carboxymethylcellulose (CMC)) was 5 % of control and 7 % of control; the T/C under setting [2] was 7 % of control; the T/C (dose: 120.0 mg/kg/injection, schedule: Q01DX011 (ip), vehicle: carboxymethylcellulose (CMC)) was 6 % of control.

As to `Cc1ccc(CNc2ncnc3c2cnn3C2CCCCO2)cc1` (stereo unspecified), the T/C was 109 % of control (dose: 18.7 mg/kg/injection, schedule: Q01DX011 (ip), vehicle: methylcellulose (MC)); 35 % of control (dose: 37.5 mg/kg/injection, schedule: Q01DX011 (ip), vehicle: methylcellulose (MC)); 88 % of control (dose: 75.0 mg/kg/injection, schedule: Q01DX011 (ip), vehicle: methylcellulose (MC)); 44 % of control (dose: 150.0 mg/kg/injection, schedule: Q01DX011 (ip), vehicle: methylcellulose (MC)).

Take `Nc1nc(Br)c2[nH]cnc2n1`: under setting [2], the T/C is 1 % of control.

Take `CSc1ncc(Br)c(=S)[nH]1`: the T/C was 74 % of control under setting [3] and 70 % of control under setting [4].

With `CCC1/C=C/C=C/CC(C)C(O)C(C)(O)C(=O)C(C)C(O)C(C)C(=O)C(C)C(O)C(C)/C=C/C(=O)OC2C(C)C(CC1)OC1(OC(CC(C)O)C(C)CC1=O)C2C` (stereo unspecified) (tested in a mixture with another compound), the T/C (dose: 1.0 mg/kg/injection, schedule: Q01DX011 (ip), vehicle: saline) is 68 % of control; the T/C (dose: 2.0 mg/kg/injection, schedule: Q01DX011 (ip), vehicle: saline) was 87 % of control; the T/C (dose: 4.0 mg/kg/injection, schedule: Q01DX011 (ip), vehicle: saline) is 61 % of control.

Consider `Nc1nc(Cl)cc(Nc2ccccc2Br)n1`, for which the T/C is, setting by setting: under setting [3], 66 % of control; under setting [4], 87 % of control; (dose: 62.0 mg/kg/injection, schedule: Q01DX011 (ip), vehicle: methylcellulose (MC)) 88 % of control; (dose: 125.0 mg/kg/injection, schedule: Q01DX011 (ip), vehicle: methylcellulose (MC)) 79 % of control; (dose: 250.0 mg/kg/injection, schedule: Q01DX011 (ip), vehicle: methylcellulose (MC)) 121 % of control.

Take `CC(=O)OC1CCC(C2CCCCC2)CC1` (stereo unspecified): the T/C runs as follows: (dose: 29.0 mg/kg/injection, schedule: Q01DX011 (ip), vehicle: saline) 157 % of control; (dose: 57.0 mg/kg/injection, schedule: Q01DX011 (ip), vehicle: saline) 173 % of control; (dose: 57.0 mg/kg/injection, schedule: Q01DX011 (oral), vehicle: saline) 86 % of control; (dose: 113.0 mg/kg/injection, schedule: Q01DX011 (oral), vehicle: saline) 102 % of control; (dose: 225.0 mg/kg/injection, schedule: Q01DX011 (oral), vehicle: saline) 84 % of control.

As for `O=C1c2ccccc2C(=O)c2c1c(O)c1ccccc1c2O`, the T/C was 92 % of control (dose: 100.0 mg/kg/injection, schedule: Q#A X022 (im), vehicle: other); 82 % of control (dose: 100.0 mg/kg/injection, schedule: Q#A X022 (sc), vehicle: other); 79 % of control (dose: 200.0 mg/kg/injection, schedule: Q#A X022 (im), vehicle: other); 82 % of control (dose: 200.0 mg/kg/injection, schedule: Q#A X022 (sc), vehicle: other); 73 % of control (dose: 300.0 mg/kg/injection, schedule: Q#A X022 (im), vehicle: other); 29 % of control (dose: 300.0 mg/kg/injection, schedule: Q#A X022 (ip), vehicle: other). The T/C by setting is: (dose: 300.0 mg/kg/injection, schedule: Q#A X022 (sc), vehicle: other) 52 % of control; (dose: 400.0 mg/kg/injection, schedule: Q#A X022 (im), vehicle: other) 73 % of control; (dose: 400.0 mg/kg/injection, schedule: Q#A X022 (sc), vehicle: other) 68 % of control.

Regarding `Nc1c(Br)cc2c(c1Br)Cc1cc([N+](=O)[O-])ccc1-2`, the T/C is, setting by setting: (dose: 1.5 mg/kg/injection, schedule: Q01DX011 (ip), vehicle: carboxymethylcellulose (CMC)) 85 % of control; (dose: 3.0 mg/kg/injection, schedule: Q01DX011 (ip), vehicle: carboxymethylcellulose (CMC)) 63 % of control; (dose: 6.0 mg/kg/injection, schedule: Q01DX011 (ip), vehicle: carboxymethylcellulose (CMC)) 43 % of control; (dose: 6.0 mg/kg/injection, schedule: Q01DX011 (ip), vehicle: other) 94 % of control; (dose: 6.25 mg/kg/injection, schedule: Q01DX011 (ip), vehicle: saline) 109 % of control; (dose: 12.0 mg/kg/injection, schedule: Q01DX011 (ip), vehicle: carboxymethylcellulose (CMC)) 22 % of control. In addition, the T/C runs as follows: (dose: 12.5 mg/kg/injection, schedule: Q01DX011 (ip), vehicle: saline) 69 % of control; under setting [1], 7 % of control; (dose: 25.0 mg/kg/injection, schedule: Q01DX011 (ip), vehicle: saline) 82 % of control; (dose: 27.5 mg/kg/injection, schedule: Q01DX011 (ip), vehicle: saline) 46 % of control; (dose: 50.0 mg/kg/injection, schedule: Q01DX011 (ip), vehicle: carboxymethylcellulose (CMC)) 12 % of control; (dose: 50.0 mg/kg/injection, schedule: Q01DX011 (ip), vehicle: saline) 57 % of control. The T/C by setting is: (dose: 50.0 mg/kg/injection, schedule: Q01DX011 (oral), vehicle: saline) 90 % of control; (dose: 55.0 mg/kg/injection, schedule: Q01DX011 (ip), vehicle: saline) 29 % of control; (dose: 100.0 mg/kg/injection, schedule: Q01DX011 (ip), vehicle: carboxymethylcellulose (CMC)) 19 % of control; (dose: 100.0 mg/kg/injection, schedule: Q01DX011 (ip), vehicle: saline) 63 % of control; (dose: 100.0 mg/kg/injection, schedule: Q01DX011 (oral), vehicle: saline) 72 % of control; (dose: 110.0 mg/kg/injection, schedule: Q01DX011 (ip), vehicle: other) 17 % of control and 30 % of control. In addition, the T/C (dose: 110.0 mg/kg/injection, schedule: Q01DX011 (ip), vehicle: saline) was 21 % of control and 38 % of control; the T/C (dose: 200.0 mg/kg/injection, schedule: Q01DX011 (ip), vehicle: carboxymethylcellulose (CMC)) was 8 % of control; the T/C (dose: 200.0 mg/kg/injection, schedule: Q01DX011 (ip), vehicle: saline) was 46 % of control; the T/C (dose: 200.0 mg/kg/injection, schedule: Q01DX011 (oral), vehicle: saline) is 91 % of control; the T/C (dose: 225.0 mg/kg/injection, schedule: Q01DX011 (ip), vehicle: other) is 17 % of control and 32 % of control; the T/C (dose: 400.0 mg/kg/injection, schedule: Q01DX011 (oral), vehicle: saline) was 117 % of control. The T/C was 6 % of control (dose: 450.0 mg/kg/injection, schedule: Q01DX011 (ip), vehicle: other); 66 % of control (dose: 800.0 mg/kg/injection, schedule: Q01DX011 (oral), vehicle: saline); 15 % of control (dose: 900.0 mg/kg/injection, schedule: Q01DX011 (ip), vehicle: other).
